Assay results reported in US20240400555A1 (Initial Therapeutics, Inc., priority 2023, published 2024).

Tested on: HCT-116 Firefly-luciferase reporter cells
Test: Cellular c-MYC Reporter Assay
Assay type: cell-based
Details: Homo sapiens, HCT-116, 24 h, read-out: pIC50 (converted)
Description: HCT-116 Firefly-luciferase reporter cells (BPS Bioscience) were seeded in 96-well tissue-culture treated sterile plates (Greiner Bio-One) at 5e4 cells/mL in 100 μL complete growth media (McCoy's 5A+10% FBS, +1% Pen-Strep, +1% G418). Cells were incubated at 37° C. with 5% CO2 for 4-6 h then treated with 3× compound solution in 50 μL complete growth media for a final volume of 150 μL per well with 0.2% DMSO. After 24 h incubation at 37° C. with 5% CO2, plates were allowed to equilibrate to RT for 20 min then developed by addition of 100 μL ONE-Glo Luciferase detection reagent (Promega), incubated at RT for 10 min. Luminescence was recorded using a SpectraMax i3x plate reader (Molecular Devices) and analyzed using Prism GraphPad 9 software.

| Structure (SMILES) | IC50 [nM] |
| --- | --- |
| Cc1cccc2ccnc(N(C(=O)c3ccc(-n4ncnn4)cc3)[C@@H]3CCCNC3)c12 [Example 234, (R)—N-(8-methylisoquinolin-1-yl)-N-(piperidin-3-yl)-4-(2H-tetrazol-2-yl)benzamide] | 398 |
| Cc1cccc2ccnc(N(C(=O)c3ccc(-n4nnc5cccnc54)cc3)[C@@H]3CCCNCC3)c12 [Example 229, (R)-4-(3H-[1,2,3]triazolo[4,5-b]pyridin-3-yl)-N-(azepan-4-yl)-N-(8-methylisoquinolin-1-yl)benzamide] | 15100 |

Same assay, conditions: Homo sapiens; untitled table following Table 8a; HCT-116 Firefly-luciferase reporter cells, 24 h; read-out: pIC50 (converted)

| Structure (SMILES) | IC50 [nM] |
| --- | --- |
| C=C(C)c1cccnc1N(C(=O)c1ccc(-n2nnc3cccnc32)cc1F)[C@@H]1CCCNC1 [Example 108, (R)-4-(3H-[1,2,3]triazolo[4,5-b]pyridin-3-yl)-2-fluoro-N-(piperidin-3-yl)-N-(3-(prop-1-en-2-yl)pyridin-2-yl)benzamide] | 129 |
| Cc1cccc2ccnc(N(C(=O)c3ccc(-c4n[nH]c5c4CCCC5)cc3F)[C@@H]3CCCNC3)c12 [Example 123, (R)-2-fluoro-N-(8-methylisoquinolin-1-yl)-N-(piperidin-3-yl)-4-(4,5,6,7-tetrahydro-1H-indazol-3-yl) benzamide] | 5010 |
| Cc1cn(C)c2c(N(C(=O)c3ccc(-n4nnc5cccnc54)cc3F)[C@@H]3CCCNC3)nccc12 [Example 255, (R)-4-(3H-[1,2,3]triazolo[4,5-b]pyridin-3-yl)-N-(1,3-dimethyl-1H-pyrrolo[2,3-c]pyridin-7-yl)-2-fluoro-N-(piperidin-3-yl)benzamide] | 100 |
| CCOC(=O)c1cc(C2CCN(C(=O)N(c3nccc4cccc(C)c34)[C@@H]3CCCNC3)CC2)on1 [Example 279, ethyl (R)-5-(1-((8-methylisoquinolin-1-yl)(piperidin-3-yl)carbamoyl)piperidin-4-yl)isoxazole-3-carboxylate] | 5130 |
| O=C(c1ccc(-n2nnc3cccnc32)cc1F)N(c1nccc2cccc(/C=C/CCO)c12)[C@@H]1CCCNC1 [Example 166, (R,E)-4-(3H-[1,2,3]triazolo[4,5-b]pyridin-3-yl)-2-fluoro-N-(8-(4-hydroxybut-1-en-1-yl)isoquinolin-1-yl)-N-(piperidin-3-yl)benzamide] | 141 |
| Cn1cc(-c2ccc(C(=O)N(c3cc(-c4cc[nH]n4)ccn3)[C@@H]3CCCNC3)cc2)nn1 [Example 110, 4-(1-methyltriazol-4-yl)-N-[(3R)-3-piperidyl]-N-[4-(1H-pyrazol-3-yl)-2-pyridyl] benzamide] | > 10000 |
| CNC(=O)c1cccnc1N(C(=O)c1ccc(-n2nnc3cccnc32)cc1F)[C@@H]1CCCNC1 [Example 213, (R)-2-(4-(3H-[1,2,3]triazolo[4,5-b]pyridin-3-yl)-2-fluoro-N-(piperidin-3-yl)benzamido)-N-methylnicotinamide] | 646 |
| Cn1cc(-c2ccc3c(N(C(=O)c4ccc(-n5nnc6cccnc65)cc4F)[C@@H]4CCCNC4)nccc3c2)cn1 [Example 97, (R)-4-(3H-[1,2,3]triazolo[4,5-b]pyridin-3-yl)-2-fluoro-N-(6-(1-methyl-1H-pyrazol-4-yl)isoquinolin-1-yl)-N-(piperidin-3-yl)benzamide] | 380 |
| Cc1cccc2ccnc(N(C(=O)c3ccc(-n4nnc5cccnc54)cc3)[C@H]3CNCC[C@@H]3C)c12 [Example 224, 4-(3H-[1,2,3]triazolo[4,5-b]pyridin-3-yl)-N-(8-methylisoquinolin-1-yl)-N-((3R,4S)-4-methylpiperidin-3-yl)benzamide] | > 20000 |
| C=Cc1cccc2ccnc(N(C(=O)c3ccc(-n4nnc5cccnc54)cc3F)[C@@H]3CCCNC3)c12 [Example 102, (R)-4-(3H-[1,2,3]triazolo[4,5-b]pyridin-3-yl)-2-fluoro-N-(piperidin-3-yl)-N-(8-vinylisoquinolin-1-yl)benzamide] | 46.8 |
| Cc1cccc2ccnc(N(C(=O)c3ccc(-n4nccn4)cc3F)[C@@H]3CCCNC3)c12 [Example 194, (R)-2-fluoro-N-(8-methylisoquinolin-1-yl)-N-(piperidin-3-yl)-4-(2H-1,2,3-triazol-2-yl)benzamide] | 1200 |
| Cc1cccc2ccnc(N(C(=O)N3CCC(c4cccc(O)c4)CC3)[C@@H]3CCCNC3)c12 [Example 269, (R)-4-(3-hydroxyphenyl)-N-(8-methylisoquinolin-1-yl)-N-(piperidin-3-yl)piperidine-1-carboxamide] | 3550 |
| CNC(=O)c1ccc2nnn(-c3ccc(C(=O)N(c4nccc5cccc(C)c45)[C@@H]4CCCNC4)c(F)c3)c2n1 [Example 139, (R)-3-(3-fluoro-4-((8-methylisoquinolin-1-yl)(piperidin-3-yl)carbamoyl)phenyl)-N-methyl-3H-[1,2,3]triazolo[4,5-b]pyridine-5-carboxamide] | 170 |
| Cc1cccc2ccnc(N(C(=O)c3ccc(Nc4nccs4)cc3F)[C@@H]3CCCNC3)c12 [Example 275, (R)-2-fluoro-N-(8-methylisoquinolin-1-yl)-N-(piperidin-3-yl)-4-(thiazol-2-ylamino)benzamide] | 3890 |
| Cc1ccnc(N(C)c2ccc(C(=O)N(c3nccc4cccc(C)c34)[C@@H]3CCCNC3)c(F)c2)n1 [Example 180, (R)-2-fluoro-4-(methyl (4-methylpyrimidin-2-yl)amino)-N-(8-methylisoquinolin-1-yl)-N-(piperidin-3-yl)benzamide] | 3390 |
| Cc1cccc2ccnc(N(C(=O)N3CCCCC3C(=O)N(C)C)[C@@H]3CCCNC3)c12 (stereo partly drawn) [Example 258, N^2,N^2-dimethyl-N^1-(8-methylisoquinolin-1-yl)-N1-((R)-piperidin-3-yl)piperidine-1,2-dicarboxamide] | 7240 |
| Cc1cccc2ccnc(N(C(=O)c3ccc(-n4nnc(C(C)Cl)n4)cc3F)[C@@H]3CCCNC3)c12 (stereo partly drawn) [Example 298, 4-(5-(1-chloroethyl)-2H-tetrazol-2-yl)-2-fluoro-N-(8-methylisoquinolin-1-yl)-N—((R)-piperidin-3-yl) benzamide] | 263 |
| O=C(c1ccc(-n2nnc3cccnc32)cc1F)N(c1nccc2ccc(Br)cc12)[C@@H]1CCCNC1 [Example 283, (R)-4-(3H-[1,2,3]triazolo[4,5-b]pyridin-3-yl)-N-(7-bromoisoquinolin-1-yl)-2-fluoro-N-(piperidin-3-yl)benzamide] | 1200 |
| COc1ccc2c(N(C(=O)c3ccc(-n4nnc5cccnc54)cc3F)[C@@H]3CCCNC3)nccc2c1 [Example 145, (R)-4-(3H-[1,2,3]triazolo[4,5-b]pyridin-3-yl)-2-fluoro-N-(6-methoxyisoquinolin-1-yl)-N-(piperidin-3-yl)benzamide] | 525 |
| O=C(c1ccc(Nc2ncccn2)cc1F)N(c1nccc2cccc(Cl)c12)[C@@H]1CCCNC1 [Example 272, (R)—N-(8-chloroisoquinolin-1-yl)-2-fluoro-N-(piperidin-3-yl)-4-(pyrimidin-2-ylamino)benzamide] | 437 |
| Cc1cccc2ccnc(N(C(=O)N3CCC(c4nc(C5CC5)no4)CC3)[C@@H]3CCCNC3)c12 [Example 262, (R)-4-(3-cyclopropyl-1,2,4-oxadiazol-5-yl)-N-(8-methylisoquinolin-1-yl)-N-(piperidin-3-yl)piperidine-1-carboxamide] | 575 |
| Cc1cccc2ccnc(N(C(=O)c3ccc(-c4onc5ccccc45)cc3F)[C@@H]3CCCNC3)c12 [Example 196, (R)-4-(benzo[c]isoxazol-3-yl)-2-fluoro-N-(8-methylisoquinolin-1-yl)-N-(piperidin-3-yl)benzamide] | > 20000 |
| Cc1cccc2ccnc(N(C(=O)c3ccc(-n4nnc5cccnc54)cc3)[C@@H]3CCCNC3)c12 [Example 241, (R)-4-(3H-[1,2,3]triazolo[4,5-b]pyridin-3-yl)-N-(8-methylisoquinolin-1-yl)-N-(piperidin-3-yl)benzamide] | 60.3 |
| O=C(c1ccc(-n2nnc3cccnc32)cc1F)N(c1nccc2ccc(-c3ccn[nH]3)cc12)[C@@H]1CCCNC1 [Example 152, (R)—N-(7-(1H-pyrazol-5-yl)isoquinolin-1-yl)-4-(3H-[1,2,3]triazolo[4,5-b]pyridin-3-yl)-2-fluoro-N-(piperidin-3-yl)benzamide] | 468 |
| CNC(=O)OCc1ccc2ccnc(N(C(=O)c3ccc(-n4nnc5cccnc54)cc3F)[C@@H]3CCCNC3)c2c1 [Example 153, (R)-(1-(4-(3H-[1,2,3]triazolo[4,5-b]pyridin-3-yl)-2-fluoro-N-(piperidin-3-yl)benzamido)isoquinolin-7-yl)methyl methylcarbamate] | 2400 |
| Cc1cccc2ccnc(N(C(=O)c3ccc(Nc4ncns4)cc3F)[C@@H]3CCCNC3)c12 [Example 280, 2-fluoro-N-(8-methyl-1-isoquinolyl)-N-[(3R)-3-piperidyl]-4-(1,2,4-thiadiazol-5-ylamino)benzamide] | 891 |
| Cc1cc(-c2ccc(C(=O)N(c3nccc4ccn(C)c34)[C@@H]3CCCNC3)c(F)c2)on1 [Example 212, (R)-2-fluoro-N-(1-methyl-1H-pyrrolo[2,3-c]pyridin-7-yl)-4-(3-methylisoxazol-5-yl)-N-(piperidin-3-yl)benzamide] | 355 |
| Cc1cccc2ccnc(N(C(=O)c3ccc(-n4nnc5ccc(C(N)=O)nc54)cc3F)[C@@H]3CCCNC3)c12 [Example 170, (R)-3-(3-fluoro-4-((8-methylisoquinolin-1-yl)(piperidin-3-yl)carbamoyl)phenyl)-3H-[1,2,3]triazolo[4,5-b]pyridine-5-carboxamide] | 56.2 |
| Cc1cccc2ccnc(N(C(=O)N3CCN(c4nsc5ccccc45)CC3)[C@@H]3CCCNC3)c12 [Example 264, (R)-4-(benzo[d]isothiazol-3-yl)-N-(8-methylisoquinolin-1-yl)-N-(piperidin-3-yl)piperazine-1-carboxamide] | 3980 |
